Laboratory results taken from the supplement of paper PMC11061612.

Key:
[1] = test system: NCI-H1793 (Lung Adenocarcinoma); experiment: combination Emax (second highest fraction inhibited in the dose matrix, 72 h); higher = more inhibition; extreme values may be limits of the assay
Procedure, shortened: (§1)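 Cell lines grown in DMEM/F12 or RPMI with 10% FBS were plated in 1536-well plates and held 24 hours at 37°C, 5% CO2 before 72 hours of exposure to two-drug dose matrices, with DMSO typically at 0.2%. CellTiter-Glo 2.0 luminescence gave viability, which was converted to inhibition. Vehicle wells were set to 0 and blank wells to 1. Combination Emax is the second-highest inhibition in the matrix, and Bliss excess is the observed combination effect minus the expected EA + EB − EA·EB, where EA and EB are the single-agent effects.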

[2] = test system: IHH-4 (Thyroid Gland Carcinoma); experiment: as above
Procedure, shortened: as §1

[3] = test system: DOV13 (Ovarian Carcinoma); experiment: as above
Procedure, shortened: as §1

[4] = test system: SN12C (Kidney Carcinoma); experiment: as above
Procedure, shortened: as §1

[5] = test system: C3A (Hepatocellular Carcinoma); experiment: as above
Procedure, shortened: as §1

[6] = test system: EM-2 (Chronic Myelogenous Leukemia); experiment: as above
Procedure, shortened: as §1

[7] = test system: LS-513 (Colorectal Carcinoma); experiment: as above
Procedure, shortened: as §1

[8] = test system: MDA-MB-157 (Breast Carcinoma); experiment: as above
Procedure, shortened: as §1

[9] = test system: KM-H2 (Hodgkin's Lymphoma); experiment: as above
Procedure, shortened: as §1

[10] = test system: HPAC (Pancreatic Carcinoma); experiment: Bliss excess, mean over the matrix (fraction); higher = more synergy
Procedure, shortened: as §1

[11] = test system: IGR-1 (Melanoma); experiment: as above
Procedure, shortened: as §1

[12] = test system: IHH-4 (Thyroid Gland Carcinoma); experiment: as above
Procedure, shortened: as §1

[13] = test system: SW1783 (Low Grade Glioma); experiment: as above
Procedure, shortened: as §1

[14] = test system: SN12C (Kidney Carcinoma); experiment: as above
Procedure, shortened: as §1

[15] = test system: SNU-C5 (Colorectal Carcinoma); experiment: as above
Procedure, shortened: as §1

[16] = test system: TGBC24TKB (Biliary Tract Carcinoma); experiment: as above
Procedure, shortened: as §1

[17] = test system: NCI-H1781 (Lung Adenocarcinoma); experiment: as above
Procedure, shortened: as §1

[18] = test system: 697 (B-Lymphoblastic Leukemia); experiment: as above
Procedure, shortened: as §1

[19] = test system: KATOIII (Gastric Carcinoma); experiment: as above
Procedure, shortened: as §1

[20] = test system: CTV-1 (T-Lymphoblastic Leukemia); experiment: as above
Procedure, shortened: as §1
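Throughout, for Bliss excess, mean over the matrix: after 72 h of two-drug dosing.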

Compound | combination Emax [1] | combination Emax [2] | combination Emax [3] | combination Emax [4] | combination Emax [5] | combination Emax [6] | combination Emax [7] | combination Emax [8] | combination Emax [9] | Bliss excess [10] | Bliss excess [11] | Bliss excess [12] | Bliss excess [13] | Bliss excess [14] | Bliss excess [15] | Bliss excess [16] | Bliss excess [17] | Bliss excess [18] | Bliss excess [19] | Bliss excess [20]
CCN(CCO)CCCOc1ccc2c(Nc3cc(CC(=O)Nc4cccc(F)c4)[nH]n3)ncnc2c1 [AZD2811] + C=CCn1c(=O)c2cnc(Nc3ccc(N4CCN(C)CC4)cc3)nc2n1-c1cccc(C(C)(C)O)n1 [AZD1775] (first compound max 1 µM, partner max 1 µM) | 0.359 | 0.667 | 0.823 | 0.175 | 0.421 | 0.96 | 0.703 | 0.729 | 0.938 | 0.0048 | -0.0438 | 0.0451 | -0.073 | -0.0698 | 0.0188 | -0.0717 | 0.0795 | 0.0164 | -0.0459 | 0.0014
CC1(C)CCC(CN2CCN(c3ccc(C(=O)NS(=O)(=O)c4ccc(NCC5CCOCC5)c([N+](=O)[O-])c4)c(Oc4cnc5[nH]ccc5c4)c3)CC2)=C(c2ccc(Cl)cc2)C1 [Venetoclax] + Cn1cnc2c(F)c(Nc3ccc(Br)cc3Cl)c(C(=O)NOCCO)cc21 [Selumetinib] (first compound max 1 µM, 7x7, partner max 3 µM) | 0.199 | 0.539 | 0.157 | 0.206 | 0.434 | 0.424 | 0.717 | 0.546 | 0.097 | -0.0515 | -0.0405 | -0.0176 | -0.0595 | -0.0489 | -0.0248 | -0.0103 | -0.0437 | -0.0001 | -0.0235 | -0.0173
CN(CCO)CC[C@H](CSc1ccccc1)Nc1ccc(S(=O)(=O)NC(=O)c2ccc(N3CCC([C@@H](O)c4ccccc4-c4ccc(Cl)cc4)CC3)cc2)cc1S(=O)(=O)C(F)(F)F [AZD4320] + C1CN(CCC1(C(=O)N[C@@H](CCO)C2=CC=C(C=C2)Cl)N)C3=NC=NC4=C3C=CN4 [Capivasertib] (first compound max 1 µM, 7x7, partner max 3 µM) | 0.195 | 0.171 | 0.812 | 0.0749 | 0.292 | 0.98 | 0.324 | 0.0801 | 0.0543 | -0.0571 | -0.0557 | -0.0253 | -0.119 | -0.0636 | -0.067 | 0.0015 | -0.0313 | -0.0179 | -0.0385 | -0.0365
Cc1c2c(nn1C)CSCc1cc(n(C)n1)CSc1cc(c3ccccc3c1)OCCCc1c(C(=O)O)n(C)c3c-2c(Cl)ccc13 [AZD5991] + CCN(CCO)CCCOc1ccc2c(Nc3cc(CC(=O)Nc4cccc(F)c4)[nH]n3)ncnc2c1 [AZD2811] (first compound max 1 µM, 7x7, partner max 1 µM) | 0.2 | 0.404 | 0.603 | 0.387 | 0.32 | 0.906 | 0.623 | 0.846 | 0.271 | 0.0104 | 0.0316 | 0.0306 | -0.0135 | 0.0191 | 0.0247 | 0.0122 | -0.0155 | -0.0039 | -0.0687 | 0.0556
COc1nnc2ccc(N3CCC(c4ccc(OCCN5CCN(C)C(=O)[C@H]5C)cc4)CC3)nn12 [AZD5153] + Cn1cnc2c(F)c(Nc3ccc(Br)cc3Cl)c(C(=O)NOCCO)cc21 [Selumetinib] (first compound max 1 µM, 7x7, partner max 10 µM) | 0.373 | 0.662 | 0.482 | 0.277 | 0.777 | 0.992 | 0.951 | 0.546 | 0.299 | 0.0161 | 0.0544 | 0.0085 | -0.0214 | 0.0158 | -0.0116 | 0.158 | -0.0085 | -0.0389 | -0.0294 | 0.0009
CN(CCO)CC[C@H](CSc1ccccc1)Nc1ccc(S(=O)(=O)NC(=O)c2ccc(N3CCC([C@@H](O)c4ccccc4-c4ccc(Cl)cc4)CC3)cc2)cc1S(=O)(=O)C(F)(F)F [AZD4320] + Cc1cc2ncnn2cc1Nc1ncc2c(n1)n(C1CCOCC1)c(=O)n2C [AZD7648] (first compound max 1 µM, 7x7, partner max 10 µM) | 0.356 | 0.193 | 0.779 | 0.145 | 0.248 | 0.99 | 0.155 | 0.0975 | 0.0312 | -0.0292 | -0.0137 | -0.0451 | -0.044 | -0.0578 | -0.0257 | 0.0059 | -0.0388 | -0.0305 | -0.0343 | 0.001
COc1cccc(OCCCN)c1-c1cc(Nc2cnc(C#N)cn2)n[nH]1 [Prexasertib] + C[C@@H]1COCCN1C2=NC(=NC(=C2)C3(CC3)[S@](=N)(=O)C)C4=C5C=CNC5=NC=C4 [AZD6738] (first compound max 1 µM, 7x7, partner max 10 µM) | 0.423 | 0.862 | 0.945 | 0.313 | 0.528 | 0.994 | 0.8 | 0.949 | 0.92 | -0.0351 | -0.0091 | 0.0132 | 0.0261 | 0.0012 | -0.0143 | -0.0038 | 0.006 | 0.0031 | 0.0124 | -0.0725
NC1(C(=O)N[C@@H](CCO)c2ccc(Cl)cc2)CCN(c2ncnc3[nH]ccc23)CC1 [Capivasertib] + CC(=O)c1c(C)c2cnc(Nc3ccc(N4CCNCC4)cn3)nc2n(C2CCCC2)c1=O [Palbociclib] (first compound max 10 µM, 7x7, partner max 10 µM) | 0.361 | 0.618 | 0.588 | 0.17 | 0.556 | 0.384 | 0.675 | 0.24 | 0.513 | 0.0004 | -0.0028 | 0.0815 | -0.0263 | -0.0265 | -0.0112 | -0.0216 | -0.0326 | -0.114 | -0.0242 | 0.0198
Cc1nc(Nc2ncc(C(=O)Nc3c(C)cccc3Cl)s2)cc(N2CCN(CCO)CC2)n1 [Dasatinib] + CC(=O)Nc1cccc(-n2c(=O)n(C3CC3)c(=O)c3c(Nc4ccc(I)cc4F)n(C)c(=O)c(C)c32)c1 [Trametinib] (first compound max 2 µM, 7x7, partner max 1 µM) | 0.567 | 0.896 | 0.814 | 0.455 | 0.577 | 0.861 | 0.998 | 0.234 | 0.234 | 0.039 | -0.0448 | 0.112 | -0.0712 | -0.0254 | -0.013 | 0.106 | -0.0355 | -0.0461 | -0.0164 | 0.0181
CC1(C)CCC(CN2CCN(c3ccc(C(=O)NS(=O)(=O)c4ccc(NCC5CCOCC5)c([N+](=O)[O-])c4)c(Oc4cnc5[nH]ccc5c4)c3)CC2)=C(c2ccc(Cl)cc2)C1 [Venetoclax] + C1CN(CCC1(C(=O)N[C@@H](CCO)C2=CC=C(C=C2)Cl)N)C3=NC=NC4=C3C=CN4 [Capivasertib] (first compound max 1 µM, 7x7, partner max 3 µM) | 0.221 | 0.248 | 0.353 | 0.206 | 0.17 | 0.338 | 0.335 | 0.535 | 0.153 | -0.0234 | -0.0602 | -0.0187 | -0.0494 | -0.0557 | -0.0069 | 0.0325 | -0.0811 | -0.0154 | -0.0691 | -0.0319
CC1(C)CCC(CN2CCN(c3ccc(C(=O)NS(=O)(=O)c4ccc(NCC5CCOCC5)c([N+](=O)[O-])c4)c(Oc4cnc5[nH]ccc5c4)c3)CC2)=C(c2ccc(Cl)cc2)C1 [Venetoclax] + C[C@@H](Nc1cc(F)cc(F)c1)c1cc(C(=O)N(C)C)cc2c(=O)cc(N3CCOCC3)oc12 [AZD8186] (first compound max 1 µM, 7x7, partner max 3 µM) | 0.221 | 0.22 | 0.306 | 0.174 | 0.296 | 0.256 | 0.491 | 0.546 | 0.139 | -0.0029 | -0.0471 | 0.0138 | -0.0258 | -0.0777 | -0.0308 | -0.0202 | -0.0341 | -0.0458 | -0.0555 | 0.0057
Cc1cc2ncnn2cc1Nc1ncc2c(n1)n(C1CCOCC1)c(=O)n2C [AZD7648] + C=CCn1c(=O)c2cnc(Nc3ccc(N4CCN(C)CC4)cc3)nc2n1-c1cccc(C(C)(C)O)n1 [AZD1775] (first compound max 10 µM, partner max 1 µM) | 0.416 | 0.802 | 0.839 | 0.313 | 0.521 | 0.964 | 0.776 | 0.649 | 0.933 | 0.0067 | -0.0255 | 0.0233 | 0.0078 | -0.0188 | 0.0457 | 0.0098 | -0.0222 | 0 | -0.0052 | 0.0096
C=CCn1c(=O)c2cnc(Nc3ccc(N4CCN(C)CC4)cc3)nc2n1-c1cccc(C(C)(C)O)n1 [AZD1775] + C[C@@H]1COCCN1C2=NC(=NC(=C2)C3(CC3)[S@](=N)(=O)C)C4=C5C=CNC5=NC=C4 [AZD6738] (first compound max 1 µM, partner max 10 µM) | 0.548 | 0.886 | 0.928 | 0.408 | 0.567 | 0.977 | 0.87 | 0.947 | 0.961 | 0.0473 | 0.0632 | 0.0534 | -0.0432 | -0.0359 | -0.0173 | -0.0018 | -0.0334 | 0.047 | -0.0139 | 0.0737
